Measurements as given in patent US6121244A, “Antitumoral method by administration of partricin derivatives” (Prospa B.V., priority 1997, dated 2000).
Entries after “also recorded” stand apart in the source; their conditions may differ. Like-named read-outs stand apart in the source and are kept apart here.

Experiments:
[1] = system: erythrocytes; settings: cited from earlier work; for total hemolytic conc. (THC): erythrocytes
[2] = system: thyroid medullary carcinoma (TMC) cells; assay: Cytotoxicity test (MTT) of cisplatin after pre-treatment with SPA-S-843; assay type: cell-based
[3] = system: murine WEHI-3B (D+) myelomonocytic leukemia cells; assay: Cytotoxicity by MTT microtiter test; assay type: cell-based; settings: for dose dependence of toxic effect: linear regression
Procedure: A) Microtiter test (MTT) (Pessina et al. "In vitro short-term and long-term cytotoxicity of fluoroquinones on murine cell line", Ind. J.
The cultures were incubated for 7 days at 37° C. in air+5% CO2 and finally 20 μl of MTT at a conc. of 5 mg/ml in PBS were added to each well. After 3-h incubation at 37° C. the cultures were destroyed with 100 μl of a lytic buffer prepared with sodium dodecylsulfate/dimethylforma-mide/acetic acid/HCl. After further overnight incubation, the optical density (OD) at 620 nm was determined with a microplate LP200 detector. The O.D. of the wells with no cells was considered as 0% proliferation. The O.D. of the wells with growing cells in drug-free medium was considered as 100% proliferation.

[4] = Water solubility; assay type: physicochemical; settings: as salts, in particular diascorbate
[5] = system: carcino-embryonic antigen (CEA); assay: Carcino-embryonic antigen (CEA) in a patient under chemotherapy, CEA-RIA; assay type: in vivo, human (patient)
[6] = system: murine WEHI-3B (D+) myelomonocytic leukemia cells; settings: clonogenic test; amphotericin B vs SPA-S-843; FIG. 4
Procedure: Substances: SPA-S-843 and amphotericin B were dissolved in sterile bidistilled water to a concentration of 2000 μg/ml. The working solutions were prepared in McCoy medium supplemented with penicillin+streptomycin (100 U/ml +100 μg/ml) at the concentrations of from 200 μg/ml to 1.56 μg/ml by subsequent serial 1:2 dilutions.
The murine WEHI-3B (D+) myelomonocytic leukemia cells were maintained through subcultures in 25-cm^2 plastic bottles in McCoy medium (Seromed, Germany) containing 5% FCS (Gibco, USA).
Cell sensitivity to the toxic action of SPA-S-843 in comparison with that of amphotericin B, taken as reference substance, was determined by two different methods:
Acta, 1013, 206-11, 1989).
The clonogenic capacity of WEHI-3B(D+) cells was tested by culturing 300 cells in 0.3 ml of complete enriched medium [McCoy +10% FCS, 10 mM sodium pyruvate, 4% NEAA (10×), 4% Mem Vit (100×)]+0.3% agar in 35 mm Petri plates.
SPA-S-843 and amphotericin B (100 μl) had previously been added to the Petri plates at serial concentrations of from 25 to 0.19 μg/ml. The control plates contained 100 μl of culture medium. The colonies were counted after 7 days of incubation at 37° C. in an atmosphere of air+5% CO2.

[7] = mice, i.v.; cited from earlier work

SMILES	total hemolytic conc. (THC) [1]	potentiation of cisplatin cytotoxicity ([2]; incubation with SPA-S-843 (2 μg/ml))	effect on resistance of TMC cells to cisplatin ([2]; pre-treatment with SPA-S-843 (2 μg/ml))	cytotoxicity on WEHI-3B(D+) cells, compared with amphotericin B ([3]; 7 days, FIG. 1)	dose dependence of toxic effect ([3]; FIG. 1)	IC10 ([3]; vs amphotericin B, FIG. 2)	IC50 ([3]; vs amphotericin B, FIG. 2)	IC90 ([3]; vs amphotericin B, FIG. 2)	concentration at which lytic activity on erythrocytes appears ([1]; of the order of)	water solubility [4]	CEA after phase B ([5]; SPA-S-843 50 mg i.v. combined with 5-fluorouracil (500 mg) and folinic acid (250 mg), 3 weeks later)	sensitivity to usual chemotherapeutic agents in combination with the polyene ([5]; combination with SPA-S-843, one patient)	IC10 [6]	IC50 [6]	IC90 [6]	LD50 [7]
CNc1ccc(C(=O)CC(O)CCC(C)C2OC(=O)CC(O)CC(=O)CC(O)CC(O)CC(O)CC(O)CC3(O)CC(O)C(C(=O)NCCN(C)C)C(CC(OC4OC(C)C(O)C(NC(=O)CN(C)C)C4O)C=CC=CC=CC=CC=CC=CC=CC2C)O3)cc1 (stereo not drawn) [SPA-S-843 free base, N-dimethylamino-acetyl-partricin A 2-dimethylaminoethylamide]	> 18 µg/mL															
CNc1ccc(C(=O)CC(O)CCC(C)C2OC(=O)CC(O)CC(=O)CC(O)CC(O)CC(O)CC(O)CC3(O)CC(O)C(C(=O)NCCN(C)C)C(CC(OC4OC(C)C(O)C(NC(=O)CN(C)C)C4O)C=CC=CC=CC=CC=CC=CC=CC2C)O3)cc1 (stereo not drawn) [SPA-S-843, N-dimethylamino-acetyl-partricin A 2-dimethylaminoethylamide]		able to potentiate cisplatin cytotoxicity against resistant cells up to the level of naturally sensitive cells; also recorded: cytotoxic for all TMC cells	substantially counteracted	substantially higher; also recorded: more sensitive to SPA-S-843 than to amphotericin B	dose-related kinetics	significantly lower	significantly lower	significantly lower	≥ 18000 ng/mL	water soluble	65 ng/mL	re-established the sensitivity				
C[C@@H]1[C@H](O)[C@@H](C)/C=C/C=C/C=C/C=C/C=C/C=C/C=C/[C@H](O[C@@H]2O[C@H](C)[C@@H](O)[C@H](N)[C@@H]2O)C[C@@H]2O[C@](O)(C[C@@H](O)C[C@@H](O)[C@H](O)CC[C@@H](O)C[C@@H](O)CC(=O)O[C@H]1C)C[C@H](O)[C@H]2C(=O)O [amphotericin B]	2 µg/mL				dose-related kinetics								significantly higher	significantly higher	significantly higher	4.77 mg/kg
